In US7863313B2, “Methods for the treatment of inflammatory diseases” (Cortical PTY LTD, priority 2003, dated 2011):

Test system: MIF-induced proliferation of mouse NIH 3T3 fibroblasts
Assay: MIF-induced proliferation in mouse fibroblasts (3H-thymidine incorporation)
Format: cell-based
Conditions: Compound (10×^10−6M) + MIF 50 ng/ml; nil 1087, MIF + vehicle 1452
Experimental: The activity of compounds was studied in a bioassay utilising MIF-induced proliferation of mouse NIH 3T3 fibroblasts. […] NIH 3T3 cells were propagated in DMEM/10% foetal calf serum (FCS). Prior to experimentation, cells were seeded at 10^4 cells/well in 96-well plates in DMEM/10% FCS for 18 hours. The media was then replaced with DMEM/0.1% FCS and the cells incubated for a further 18 hr. At time point −1 hr, culture medium was replaced with DMEM/0.1% FCS and cells were treated with a compound of the invention at a final concentration of 10 μM or vehicle. At time point zero, cells were treated with MIF at a final concentration of 50 ng/ml. At time point 6 hr the cells were pulsed with 1 µCi/well of ^3H-thymidine. At time point 24 hours, cells were harvested using a semi-automated cell harvester. The radioactivity incorporated into DNA was determined by liquid scintillation counting, with results expressed as ^3H-thymidine incorporation (cpm). Statistical significance was analysed using the Mann-Whitney test.

**Q.** With `COC(=O)CCCC1(c2ccc(F)cc2)OCCO1` [Compound 9, Methyl 4-[2-(4-fluorophenyl)-1,3-dioxolan-2-yl]butanoate] as the compound, how does the “Mean cpm (3H-thymidine incorporation)” value read?
**A.** Its value is 1071 cpm.

**Q.** How did the “Mean cpm (3H-thymidine incorporation)” value turn out when `OCCCCC1(c2ccc(F)cc2)OCCO1` [Compound 10, 4-[2-(4-Fluorophenyl)-1,3-dioxolan-2-yl]butan-1-ol] was run?
**A.** Its value is 1187 cpm.

**Q.** How did the “Mean cpm (3H-thymidine incorporation)” value turn out when `CCCCC1(c2ccc(Br)cc2)OCCO1` [Compound 11, 2-(4′-Bromophenyl)-2-butyl-1,3-dioxolane] was run?
**A.** The value was 1245 cpm.

**Q.** With `COc1ccc(-c2ccc(OC(F)(F)F)cc2)c(OC)n1` [Compound 14, 2,6-Dimethoxy-3-[4-(trifluoromethoxy)phenyl]pyridine] as the compound, how does the “Mean cpm (3H-thymidine incorporation)” value read?
**A.** The value was 1420 cpm.

**Q.** For `CCC1(c2ccc(OC)cc2)OCCO1` [Compound 16, 2-Ethyl-2-(4-methoxyphenyl)-1,3-dioxolane], which “Mean cpm (3H-thymidine incorporation)” value is on record?
**A.** Its value is 1335 cpm.

**Q.** With `CCCCCCC1(c2ccc(C)cc2)OCCO1` [Compound 19, 2-Hexyl-2-(4-methylphenyl)-1,3-dioxolane] as the compound, how does the “Mean cpm (3H-thymidine incorporation)” value read?
**A.** The value was 1209 cpm.

**Q.** How did the “Mean cpm (3H-thymidine incorporation)” value turn out when `CC1(c2ccc(Cl)cc2)OCCCO1` [Compound 20, 2-(4-Chlorophenyl)-2-methyl-1,3-dioxane] was run?
**A.** The value was 1214 cpm.

**Q.** For `CC1(c2ccc(Cl)cc2)OCCO1` [Compound 21, 2-(4-Chlorophenyl)-2-methyl-1,3-dioxolane], which “Mean cpm (3H-thymidine incorporation)” value is on record?
**A.** The value was 1220 cpm.

**Q.** For `Cc1ccc(C2(C)OCCCO2)cc1` [Compound 22, 2-Methyl-2-(4-methylphenyl)-1,3-dioxane], which “Mean cpm (3H-thymidine incorporation)” value is on record?
**A.** Its value is 1310 cpm.

**Q.** For `Cc1ccc(C2(C)OCCO2)cc1` [Compound 23, 2-Methyl-2-(4-methylphenyl)-1,3-dioxolane], which “Mean cpm (3H-thymidine incorporation)” value is on record?
**A.** The value was 1344 cpm.

**Q.** With `CC1(c2ccc([N+](=O)[O-])cc2)OCCCO1` [Compound 26, 2-(4-Nitrophenyl)-2-methyl-1,3-dioxane] as the compound, how does the “Mean cpm (3H-thymidine incorporation)” value read?
**A.** The value was 1141 cpm.

**Q.** Which “Mean cpm (3H-thymidine incorporation)” value does the source give for `COc1cc(C2OCCS2)cc(OC)c1OC` (centres unmarked) [Compound 28, 2-(3,4,5-Trimethoxyphenyl)-1,3-oxathiolane] here?
**A.** The value was 1219 cpm.

**Q.** How did the “Mean cpm (3H-thymidine incorporation)” value turn out when `CCCCC1(c2ccc(Br)cc2)OCCC(CCC)S1` (centres unmarked) [Compound 39, 2-(4-bromophenyl)-2-butyl-4-propyl-1,3-oxathiane] was run?
**A.** Its value is 956.1 cpm.

**Q.** `CCC1(c2ccc(Cl)cc2)OCC(C)O1` (centres unmarked) [Compound 42, 2-(4-Chlorophenyl)-2-ethyl-4-methyl-1,3-dioxolane] was tested. Which “Mean cpm (3H-thymidine incorporation)” value did it give?
**A.** Its value is 1168 cpm.

**Q.** For `Clc1ccc(C2=NCCO2)cc1` [Compound 44, 2-(4-Chlorophenyl)-4,5-dihydro-1,3-oxazole], which “Mean cpm (3H-thymidine incorporation)” value is on record?
**A.** Its value is 1294 cpm.

Test system: LPS-IFN—induced nitrite production
Assay: MIF-dependent nitrite production in peritoneal macrophages (Greiss assay)
Format: cell-based, mouse
Conditions: Mus musculus, Peritoneal macrophage; compound 1 μM; LPS 10 ng/ml + interferon-γ 10 units/ml, 24 h; read-out: % Inhibition of nitrite (± SD)
Experimental: MIF is able to induce or facilitate the expression and release of a wide variety of pro-inflammatory and/or destructive molecules, including the release of macrophage nitric oxide (NO) ^(20). A compound with the ability to inhibit the cytokine or biological function of MIF might be expected to inhibit the activation of NO production by macrophages.
C57BL6/J male mice were injected intraperitoneally with 2 ml of thioglycolate. Three days later peritoneal macrophages were collected by lavaging the peritoneum with 3 ml of cold Hank's buffered saline solution. Cells from several mice were pooled, washed and re-suspended in DMEM supplemented with 5% FCS. Cells were plated in 96 well plastic tissue culture plates at 1×10^5 cells/well. Cells were treated in triplicate wells with compound or vehicle for 1 hour in a 5% CO2 incubator at 37° C. Cells were then treated with LPS (10 ng/ml) and recombinant human interferon-γ (10 units/ml) and incubated for 24 hours. After 24 hours, 50 μl of supernatant from each well was carefully removed and transferred to ELISA plates. The production of NO was measured by analysing the concentration of nitrite in culture supernatants, as measured by the Greiss assay ^(21). The results were calculated as the percentage inhibition of nitrite concentration in compound-treated cell culture supernatants, compared to that of vehicle-treated cells.

**Q.** How did the inhibition at 1 µM turn out when `COC(=O)CCCC1(c2ccc(F)cc2)OCCO1` [Compound 9, Methyl 4-[2-(4-fluorophenyl)-1,3-dioxolan-2-yl]butanoate] was run?
**A.** Its inhibition at 1 µM is 16 ± 1%.

Same assay, conditions: Mus musculus, Peritoneal macrophage; compound 33 μM; LPS 10 ng/ml + interferon-γ 10 units/ml, 24 h; read-out: % Inhibition of nitrite (± SD)

**Q.** `CCCCC1(c2ccc(Br)cc2)OCCO1` [Compound 11, 2-(4′-Bromophenyl)-2-butyl-1,3-dioxolane] was tested. Which inhibition at 33 µM did it give?
**A.** The inhibition at 33 µM was 19 ± 1%.

Same assay, conditions: Mus musculus, Peritoneal macrophage; compound 100 μM; LPS 10 ng/ml + interferon-γ 10 units/ml, 24 h; read-out: % Inhibition of nitrite (± SD)

**Q.** How did the inhibition at 100 µM turn out when `COc1ccc(-c2ccc(OC(F)(F)F)cc2)c(OC)n1` [Compound 14, 2,6-Dimethoxy-3-[4-(trifluoromethoxy)phenyl]pyridine] was run?
**A.** The inhibition at 100 µM was 27 ± 3%.

**Q.** `COc1ccc(C2OCCS2)cc1` (centres unmarked) [Compound 27, 2-(4-Methoxyphenyl)-1,3-oxathiolane] was tested. Which inhibition at 100 µM did it give?
**A.** The inhibition at 100 µM was 24 ± 1%.

**Q.** For `N#Cc1ccc(C2OCCS2)cc1` (centres unmarked) [Compound 30, 4-(1,3-Oxathiolan-2-yl)benzonitrile], which inhibition at 100 µM is on record?
**A.** Its inhibition at 100 µM is 31 ± 2%.

**Q.** With `CCC1(c2ccc(Br)cc2)OCCS1` (centres unmarked) [Compound 31, 2-(4-Bromophenyl)-2-ethyl-1,3-oxathiolane] as the compound, how does the inhibition at 100 µM read?
**A.** Its inhibition at 100 µM is 35 ± 3%.

**Q.** For `CCCCCCCCC1(c2ccc(O)cc2)OC(C)CS1` (centres unmarked) [Compound 34, 4-(5-Methyl-2-octyl-1,3-oxathiolan-2-yl)phenol], which inhibition at 100 µM is on record?
**A.** Its inhibition at 100 µM is 24 ± 1%.

**Q.** For `CC1CSC(c2ccc(F)c(C#N)c2)O1` (centres unmarked) [Compound 35, 2-Fluoro-5-(5-methyl-1,3-oxathiolan-2-yl)benzenecarbonitrile], which inhibition at 100 µM is on record?
**A.** Its inhibition at 100 µM is 18 ± 2%.

**Q.** Which inhibition at 100 µM does the source give for `CCCCC1(c2ccc(Br)cc2)OCCC(CCC)S1` (centres unmarked) [Compound 38, 2-(4-bromophenyl)-2-butyl-4-propyl-1,3-oxathiane] here?
**A.** The inhibition at 100 µM was 35%.

**Q.** Which inhibition at 100 µM does the source give for `CCCCCCC1(c2cc(OC)cc(OC)c2)OCCO1` [Compound 41, 2-(3,5-Dimethoxyphenyl)-2-hexyl-1,3-dioxolane] here?
**A.** Its inhibition at 100 µM is 26 ± 1%.

**Q.** With `Cc1ccc(C2=NCCO2)cc1` [Compound 45, 2-(4-Methylphenyl)-4,5-dihydro-1,3-oxazole] as the compound, how does the inhibition at 100 µM read?
**A.** The inhibition at 100 µM was 7 ± 1%.
